Laboratory results published in US10206937B2, “Boronic acid derivatives and therapeutic uses thereof” (Qpex Biopharma, Inc., priority 2014, dated 2019).

How the values were obtained:
[1] = molecular target: T1, NDM-1 (Klebsiella pneumoniae, UniProt C7C422); assay: biochemical
[2] = molecular target: T2, VIM-1 (Pseudomonas aeruginosa, UniProt A0A0F7KYQ8); assay: biochemical; conditions: cleavage of nitrocefin (200 uM) by VIM-1 supernatant
T2 construct: made in house; host or cells: ECM6711 strain carrying pUCP24-VIM-1 plasmid; culture supernatant used unpurified

[3] = molecular target: T1, NDM-1; assay: Inhibition of purified class B carbapenemase NDM-1 (Ki, imipenem substrate); format: biochemical
[4] = molecular target: T3, purified class A, C and D enzymes (UniProt Q9F663); format: biochemical; conditions: read-out: Ki (KPC-2, NCF); purified KPC-2; nitrocefin reporter substrate
T3 construct: rows headed: Ki (KPC-2, NCF); other: purified KPC-2; nitrocefin reporter substrate

[5] = tested on: ECM6703 (pUCP24-NDM-1); format: cell-based, E. coli; conditions: NDM-1 producing strain; Compound 1 at fixed 4 μg/ml or 8 μg/ml
[6] = tested on: ECM6711 (pUCP24-VIM-1); format: cell-based, E. coli; conditions: VIM-1 producing strain; Compound 1 at fixed 4 μg/ml or 8 μg/ml
[7] = tested on: clinical isolates expressing class A, B and D carbapenemases; assay: Carbapenem potentiation by Compound 1, whole panel of clinical isolates (MIC); format: cell-based; conditions: Compound 1 at fixed 5 μg/ml in the growth media; all the strains
Excerpt: The results are present in Table 8.

T1 sequence (C7C422 29-270, looked up, species assumed): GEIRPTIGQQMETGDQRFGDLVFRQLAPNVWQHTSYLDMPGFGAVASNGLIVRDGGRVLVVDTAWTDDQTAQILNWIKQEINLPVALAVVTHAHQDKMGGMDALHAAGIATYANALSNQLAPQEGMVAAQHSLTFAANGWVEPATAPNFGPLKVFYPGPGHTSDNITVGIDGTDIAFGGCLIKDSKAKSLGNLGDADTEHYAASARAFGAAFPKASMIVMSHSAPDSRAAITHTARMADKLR

Q: Which results are given for `O=C(O)c1cccc2c1OB(O)[C@@H](Sc1nncs1)C2` [Compound 1, (R)-3-(1,3,4-thiadiazol-2-ylthio)-2-hydroxy-3,4-dihydro-2H-benzo[e][1,2]oxaborinine-8-carboxylic acid]?
A: Ki ([1]; Ki, Imipenem): 10 to 100 nM; Ki ([1]; cleavage of biapenem (100 uM) by NDM-1, read-out: Ki, Biapenem): 10 to 100 nM; Ki ([1]; cleavage of meropenem (100 uM) by NDM-1, read-out: Ki, Meropenem): 10 to 100 nM; Ki ([1]; cleavage of tebipenem (100 uM) by NDM-1, read-out: Ki, Tebipenem): > 100 nM; IC50 [2]: < 1000 nM; Ki [3]: 10 to 100 nM; Ki [4]: 100 to 1000 nM; imipenem MIC in the presence of Compound 1 [5]: decreased to the level of the strain containing empty vector; imipenem MIC in the presence of Compound 1 [6]: decreased to the level of the strain containing empty vector; carbapenem MIC (biapenem, doripenem, imipenem, meropenem) [7]: significantly reduced
